# From PubChem BioAssay (NCI)
#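 Cells were grown in 96-well plates and exposed to each compound for 48 hours at five concentrations; endpoints were interpolated linearly between bracketing concentrations, or set to the highest concentration if not reached. GI50 is the concentration that inhibits growth by half. TGI: concentration producing complete growth inhibition.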
# Columns and labels:
# Test in all cases: NCI-60 cell line screen, 48 h
# [1] = test system: 786-0 renal
# [2] = test system: A498 renal
# [3] = test system: A549 NSCLC
# [4] = test system: ACHN renal
# [5] = test system: BT-549 breast
# [6] = test system: CAKI-1 renal
# [7] = test system: CCRF-CEM leukemia
# [8] = test system: COLO 205 colon
# [9] = test system: DU-145 prostate
# [10] = test system: EKVX NSCLC
# [11] = test system: HCC-2998 colon
# [12] = test system: HCT-116 colon
# [13] = test system: HCT-15 colon
# [14] = test system: HL-60(TB) leukemia
# [15] = test system: HOP-62 NSCLC
# [16] = test system: HOP-92 NSCLC
# [17] = test system: HS 578T breast
# [18] = test system: HT29 colon
# [19] = test system: IGROV1 ovarian
# [20] = test system: K-562 leukemia
# [21] = test system: KM12 colon
# [22] = test system: LOX IMVI melanoma
# [23] = test system: M14 melanoma
# [24] = test system: MALME-3M melanoma
# [25] = test system: MCF7 breast
# [26] = test system: MDA-MB-231 breast
# [27] = test system: MDA-MB-435
# [28] = test system: MDA-MB-468 breast
# [29] = test system: MOLT-4 leukemia
# [30] = test system: NCI-H226 lung
# [31] = test system: NCI-H23 lung
# [32] = test system: NCI-H460 lung
# [33] = test system: NCI-H522 lung
# [34] = test system: NCI/ADR-RES ovarian
# [35] = test system: OVCAR-3 ovarian
# [36] = test system: OVCAR-4 ovarian
# [37] = test system: OVCAR-5 ovarian
# [38] = test system: OVCAR-8 ovarian
# [39] = test system: PC-3 prostate
# [40] = test system: RPMI-8226 leukemia
# [41] = test system: RXF 393 renal
# [42] = test system: SF-268 CNS
# [43] = test system: SF-295 CNS
# [44] = test system: SF-539 CNS
# [45] = test system: SK-MEL-2 melanoma
# [46] = test system: SK-MEL-28 melanoma
# [47] = test system: SK-MEL-5 melanoma
# [48] = test system: SK-OV-3 ovarian
# [49] = test system: SN12C renal
# [50] = test system: SNB-19 CNS
# [51] = test system: SNB-75 CNS
# [52] = test system: SR leukemia
# [53] = test system: SW-620 colon
# [54] = test system: T-47D breast
# [55] = test system: TK-10 renal
# [56] = test system: U251 CNS
# [57] = test system: UACC-257 melanoma
# [58] = test system: UACC-62 melanoma
# [59] = test system: UO-31 renal
smiles,measurement,setting,value
COc1ccc(CN2[C@H](C(=O)NCCCCCCC(=O)NO)Cc3c([nH]c4ccccc34)[C@H]2C2CC2)cc1,GI50,[1],3390 nM
same,TGI,[1],> 20000 nM
same,GI50,[2],1130 nM
same,TGI,[2],4200 nM
same,GI50,[3],2150 nM
same,TGI,[3],> 13000 nM
same,GI50,[4],1720 nM
same,TGI,[4],6110 nM
same,GI50,[5],5340 nM
same,TGI,[5],> 19100 nM
same,GI50,[6],1480 nM
same,TGI,[6],7560 nM
same,GI50,[7],1250 nM
same,TGI,[7],> 20000 nM
same,GI50,[8],1630 nM
same,TGI,[8],4870 nM
same,GI50,[9],2120 nM
same,TGI,[9],> 20000 nM
same,GI50,[10],2250 nM
same,TGI,[10],> 20000 nM
same,GI50,[11],1610 nM
same,TGI,[11],4550 nM
same,GI50,[12],1160 nM
same,TGI,[12],> 13300 nM
same,GI50,[13],4340 nM
same,TGI,[13],> 16500 nM
same,GI50,[14],2120 nM
same,TGI,[14],> 20000 nM
same,GI50,[15],2160 nM
same,TGI,[15],> 10600 nM
same,GI50,[16],1290 nM
same,TGI,[16],4380 nM
same,GI50,[17],1650 nM
same,TGI,[17],10700 nM
same,GI50,[18],1350 nM
same,TGI,[18],10600 nM
same,GI50,[19],1410 nM
same,TGI,[19],4690 nM
same,GI50,[20],1860 nM
same,TGI,[20],> 20000 nM
same,GI50,[21],2140 nM
same,TGI,[21],> 14200 nM
same,GI50,[22],1310 nM
same,TGI,[22],3590 nM
same,GI50,[23],2020 nM
same,TGI,[23],> 20000 nM
same,GI50,[24],946 nM
same,TGI,[24],3840 nM
same,GI50,[25],1800 nM
same,TGI,[25],> 16100 nM
same,GI50,[26],1410 nM
same,TGI,[26],4200 nM
same,GI50,[27],1160 nM
same,TGI,[27],3490 nM
same,GI50,[28],1020 nM
same,TGI,[28],> 5340 nM
same,GI50,[29],1960 nM
same,TGI,[29],> 20000 nM
same,GI50,[30],2900 nM
same,TGI,[30],> 16500 nM
same,GI50,[31],1880 nM
same,TGI,[31],8190 nM
same,GI50,[32],1780 nM
same,TGI,[32],> 20000 nM
same,GI50,[33],1330 nM
same,TGI,[33],5210 nM
same,GI50,[34],5420 nM
same,TGI,[34],> 20000 nM
same,GI50,[35],1890 nM
same,TGI,[35],8380 nM
same,GI50,[36],5240 nM
same,TGI,[36],> 20000 nM
same,GI50,[37],1090 nM
same,TGI,[37],3180 nM
same,GI50,[38],1950 nM
same,TGI,[38],> 10200 nM
same,GI50,[39],1880 nM
same,TGI,[39],> 20000 nM
same,GI50,[40],1870 nM
same,TGI,[40],> 20000 nM
same,GI50,[41],898 nM
same,TGI,[41],2450 nM
same,GI50,[42],2870 nM
same,TGI,[42],> 13700 nM
same,GI50,[43],1420 nM
same,TGI,[43],4330 nM
same,GI50,[44],1820 nM
same,TGI,[44],8740 nM
same,GI50,[45],998 nM
same,TGI,[45],18100 nM
same,GI50,[46],1660 nM
same,TGI,[46],6850 nM
same,GI50,[47],1250 nM
same,TGI,[47],2970 nM
same,GI50,[48],1170 nM
same,TGI,[48],3280 nM
same,GI50,[49],2190 nM
same,TGI,[49],8580 nM
same,GI50,[50],2110 nM
same,TGI,[50],12500 nM
same,GI50,[51],397 nM
same,TGI,[51],> 5950 nM
same,GI50,[52],1120 nM
same,TGI,[52],> 20000 nM
same,GI50,[53],1150 nM
same,TGI,[53],3530 nM
same,GI50,[54],1520 nM
same,TGI,[54],4710 nM
same,GI50,[55],1390 nM
same,TGI,[55],7360 nM
same,GI50,[56],1810 nM
same,TGI,[56],7260 nM
same,GI50,[57],1760 nM
same,TGI,[57],> 9720 nM
same,GI50,[58],1010 nM
same,TGI,[58],2560 nM
same,GI50,[59],2280 nM
same,TGI,[59],9500 nM
